Measurements as given in article PMC11212260, “Next-generation neuropeptide Y receptor small-molecule agonists inhibit mosquito-biting behavior” (Parasites & Vectors, 2024).
“And” between values parts separate entries of the source, which are not always exact repeats. Equal values may be shown once. Read-outs that look alike come from different tables or passages of the source. Where a SMILES comes first, the peptide text is derived from it.

Tests used:
[1] = system: Aedes aegypti (Orlando strain) females; experiment: Host-seeking screening assay (miniport olfactometer); format: in vivo; details: fed 1 μM in saline, tested 48 h post-meal; for Attraction (relative to saline): per-compound value of Fig. 3C; for Host-seeking relative to saline (test compound % host-seeking/average matched saline % host-seeking): individual replicates
Experimental: Groups of 60–150 females were placed in bucket cages with a diameter of 21.6 cm and height of 16.5 cm (VWR) and fasted with access to water for 24 h prior to feeding. Meals were delivered to females via Glytube membrane feeders as described previously. Meals consisted of 1.5 ml sheep blood (HemoStat Laboratories), saline (400 mM NaHCO3 + dih2O), or saline and test compound. Lyophilized compounds were stored at room temperature until use. High-concentration stocks (30 mM in 100% dimethyl sulfoxide [DMSO]) (Sigma-Aldrich) were stored at −20 °C and diluted in saline immediately prior to feeding. Once prepared, meals and glycerol heating elements were warmed in a 42 °C water bath for 15 min to provide warmth to attract mosquitos to feed. ATP (1 mM final concentration) and test compounds (1 μM final concentration) were added prior to placing the meal on top of the mesh on the cage containing female mosquitos. Females were allowed 15–20 min to feed to repletion. Abdominal engorgement was scored by eye and confirmed by weighing females to ensure full feeding (Data S1). […] Females were returned to their original cage with a diH2O wick for 48 h prior to behavioral testing. The lethality of each compound was measured by counting the number of dead females in each cage 24 h post-meal.
Miniport olfactometers were fabricated in-house as described previously. Information regarding design, construction, and use can be found at https://github.com/VosshallLab/Miniport-Construction. Miniport canisters consisted of a 6″ × 3″ × 3″ acrylic tube with a mesh screen to allow for air flow. Groups of 10–20 females were loaded into canisters 24 h post-meal. Females were left in canisters overnight to acclimate with two cotton balls soaked in diH20 to prevent desiccation. Behavior trials began 48 h post-meal. Canisters were randomly assigned to attraction traps 1–4 and given 5 min to acclimate. The stimulus end of the trap was connected to a flowmeter that supplied 5% CO2 at a rate of 30 ml/min. Thirty seconds of CO2 flow was supplied to activate females prior to opening the sliding door. Once opened, the sliding door gave females access to the attraction trap baited with a human-scented nylon stocking previously worn by the same experimenter for 8–10 h to collect body odor and stored in a plastic bag at −20 °C until use. After 5 min, the sliding door was closed and attraction was scored as mosquitoes in the attraction trap/total number of mosquitoes. For each experiment data were normalized to the matched average saline attraction from the same experiment (% attracted/average saline attraction). Any dead mosquitoes were excluded from the analysis. Non-fed females and blood-fed females served as environmental control groups while the saline-fed females served as the vehicle control each day. If non-fed or saline-fed females were less than 50% attracted or if blood-fed females were more than 20% attracted behavioral trials were halted and all data from that experimental day were discarded.

Ae. aegypti NPYLR7 = Ae. aegypti NPYLR7 (Aedes aegypti, UniProt U5N1H5); experiment: In vitro calcium (GCaMP6s) FLIPR assay in HEK293T cells transfected with NPYLR7; format: cell-based; details: for activation at 11.1111 µM / activation at 100 µM / activation at 3.7037 µM / activation at 33.3333 µM / activation at 0.4115 µM / activation at 1.2346 µM: HEK-293T; for activation at 100 µM: single replicate of the dose-response curve; for RFU: assay date 1/11/20 plate 1, duplicate wells, listed as FMFR3a
Ae. aegypti NPYLR7, sequence (U5N1H5 entry or part of it): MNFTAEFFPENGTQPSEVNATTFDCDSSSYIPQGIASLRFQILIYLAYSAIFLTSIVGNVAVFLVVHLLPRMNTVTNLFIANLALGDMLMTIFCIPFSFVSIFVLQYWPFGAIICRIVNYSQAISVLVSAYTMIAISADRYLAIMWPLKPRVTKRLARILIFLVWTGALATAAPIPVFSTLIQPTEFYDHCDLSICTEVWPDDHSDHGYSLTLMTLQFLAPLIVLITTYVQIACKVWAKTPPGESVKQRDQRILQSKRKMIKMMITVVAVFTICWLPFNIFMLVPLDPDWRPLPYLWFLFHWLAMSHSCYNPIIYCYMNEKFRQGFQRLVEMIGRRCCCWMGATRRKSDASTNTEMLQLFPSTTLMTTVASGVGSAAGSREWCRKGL
Experimental: The in vitro screening assay was adapted from, and carried out at HD Biosciences (HDB, Shanghai) as follows: HEK293T (Thermo Fisher Scientific) cells were grown in Dulbecco’s modified Eagle medium (DMEM) (high glucose, with glutamine), 10% fetal bovine serum, 1% penicillin–streptomycin (Pen/Strep), seeded in a 75 cm^2 flask, and incubated at 37 °C and 5% CO2. Cells were transiently transfected with 1 μg of each plasmid expressing GCaMP6s (Addgene […]) (Chen et al., 2013), mouse Gqα15 (Addgene #40753) (Offermanns and Simon, 1995) and Ae. aegypti NPYLR7 (Addgene #52392) (Duvall et al. 2019) using Lipofectamine 2000 (Invitrogen) in 4 ml of Opti-MEM (Invitrogen). This mixture was added to a plate after 20 min and incubated for 6–8 h. Cells were then trypsinized, resuspended in phenol-free media, and plated in a 384-well plate (Greiner Bio-One) at a density of 20,000 cells per 40 μl, and incubated overnight (37 °C, 5% CO2). Cells were imaged directly in phenol-free media. Plates were loaded into a Molecular Devices fluorescence imaging plate reader (FLIPR) with an excitation wavelength of 470–495 nm and an emitted wavelength of 515–575 nm. Plates were imaged every second for 5 min. After 30 s of baseline fluorescence recording, 10 μl of the test compound in reading buffer [Hank’s Balanced Salt Solution (Gibco) + 20 mM HEPES (Sigma-Aldrich)] was added. Concentrations tested ranged from 0 to 100 μM. Data were collected in raw fluorescence units (RFU).
Each test plate included replicates of 10 μM FMRFa3 (H‐Ala‐Gly‐Gln‐Gly‐Phe‐Met‐Arg‐Phe‐NH2), an Ae. aegypti neuropeptide agonist of NPYLR7 used to calculate the hundred percent effect (HPE). The zero percent effect (ZPE) control was calculated as a response to buffer alone. The Z′ factor was calculated for each plate by Z^′=1-3σHPE+3σZPE/|μHPE-μZPE| . Plates with Z′ < 0.5 were excluded from analysis. Raw fluorescence units (RFU) were converted to percent effect relative to the average of the ZPE and HPE. Percent effect = (sample luminescence − average ZPE)/(average HPE − average ZPE)×100. […] Each replicate was plotted as percent effect versus log[concentration], and replicates with maximal responses between 20 and 250% were used for EC50 calculations. Relative EC50 was calculated using an [Agonist] versus response–variable slope four-parameter model where Y=Bottom+(X^Hillslope)∗(Top-Bottom)/(X^HillSlope+EC50^HillSlope) . For compounds with multiple replicates, the relative EC50 of each replicate was averaged.

[2] = EC50 of the individual assay date/plate (assay date), read-out: EC50
[3] = Figure 1E Summary, second list (n = 48), read-out: Reported Metric (Summary list)
[4] = 11.1111 uM, single replicate, normalised response
[5] = relative EC50, percent effect relative to 10 μM FMRFa3, read-out: EC50
[6] = sheet Figure 3C, unit inferred, read-out: EC50
[7] = summary EC50 per compound (mean over assay dates), the unit is taken from the neighbouring EC50 (uM) column, read-out: Reported Metric
[8] = single replicate, normalised response
[9] = 33.3333 uM, single replicate, normalised response
[10] = Figure 1E Summary, third list (n = 39), read-out: Reported Metric (Summary list)

Compound	Attraction (relative to saline) [1]	EC50 (Ae. aegypti NPYLR7; [2])	EC50 (Ae. aegypti NPYLR7; [3])	activation at 11.1111 µM (Ae. aegypti NPYLR7; [4])	activation at 100 µM (Ae. aegypti NPYLR7; 100 uM, normalised response)	EC50 (Ae. aegypti NPYLR7; [5])	EC50 (Ae. aegypti NPYLR7; [6])	EC50 (Ae. aegypti NPYLR7; [7])	activation at 3.7037 µM (Ae. aegypti NPYLR7; [8])	activation at 33.3333 µM (Ae. aegypti NPYLR7; [9])	further results
Cc1nc(NC(=N)N)nc2cc(OCC3CCCCO3)ccc12 (centres unmarked) [TDI-014192]	1.035	5.76 µM	5.76 µM	55.1%	67.4%	5.76 µM	5.76 µM	5.76 µM			
Cc1nc(NC(=N)N)nc2cc(OCC3CCCCC3)ccc12 [TDI-014169]	1.025	4.43 µM	4.43 µM	78.4%	113%	4.44 µM	4.43 µM	4.43 µM	42.2%	94.5%	
Cc1nc(NC(=N)N)nc2cc(OCc3ccc(OC(F)(F)F)cc3)ccc12 [TDI-014172]	0.975	19.7 µM	19.7 µM	57%		19.7 µM	19.7 µM	19.7 µM		89.6%	Host-seeking relative to saline (test compound % host-seeking/average matched saline % host-seeking) ([1]; listed as TDI-04172): 1 and 1.1
Cc1nc(NC(=N)N)nc2cc(OCc3ccc(S(C)(=O)=O)cc3)ccc12 [TDI-014182]	0.9	0.222 µM		90.2%		0.222 µM	0.222 µM	0.222 µM	77.6%	80.3%	EC50 (Ae. aegypti NPYLR7; [10]): 0.222 µM; activation at 0.4115 µM (Ae. aegypti NPYLR7; [8]): 32%; activation at 1.2346 µM (Ae. aegypti NPYLR7; [8]): 62.2%
Cc1nc(NC(=N)N)nc2cc(OCC3CCOC3)ccc12 (centres unmarked) [TDI-014174]	1	5.31 µM	5.31 µM		102%	5.31 µM	5.31 µM	5.31 µM	42%	92.2%	Host-seeking relative to saline (test compound % host-seeking/average matched saline % host-seeking) ([1]; listed as TDI-04174): 1.41
CCOc1cc2c(C)nc(NC(=N)N)nc2cc1OCc1ccccc1 [TDI-013758]	0.78	8.53 µM	8.53 µM		80.6%	8.53 µM	8.53 µM	8.53 µM			Host-seeking relative to saline (test compound % host-seeking/average matched saline % host-seeking) ([1]; listed as TDI-03758): 1.17
Cc1nc(NC(=N)N)nc2cc(OC3CCCc4ccccc43)ccc12 (centres unmarked) [TDI-014183]	0.88	13.7 µM	13.7 µM			13.7 µM	13.7 µM	13.7 µM			Host-seeking relative to saline (test compound % host-seeking/average matched saline % host-seeking) ([1]; listed as TDI-04183): 0.97
CSCC[C@H](NC(=O)[C@H](Cc1ccccc1)NC(=O)CNC(=O)[C@H](CCC(N)=O)NC(=O)CNC(=O)[C@H](C)N)C(=O)N[C@@H](CCCNC(=N)N)C(=O)N[C@@H](Cc1ccccc1)C(N)=O [FMRFa3, H‐Ala‐Gly‐Gln‐Gly‐Phe‐Met‐Arg‐Phe‐NH2, reference compound] (H-AGQGFMRF-NH2)											RFU (Ae. aegypti NPYLR7; 0.00169350878084303uM): 65 RFU and 68 RFU; RFU (Ae. aegypti NPYLR7; 0.00508052634252909uM): 68 RFU and 63 RFU; RFU (Ae. aegypti NPYLR7; 0.0152415790275873uM): 60 RFU and 54 RFU; RFU (Ae. aegypti NPYLR7; 0.0457247370827618uM): 68 RFU and 57 RFU; RFU (Ae. aegypti NPYLR7; 0.137174211248285uM): 60 RFU and 61 RFU; RFU (Ae. aegypti NPYLR7; 0.411522633744856uM): 69 RFU and 63 RFU; RFU (Ae. aegypti NPYLR7; 1.23456790123457uM): 164 RFU and 112 RFU; RFU (Ae. aegypti NPYLR7; 3.7037037037037uM): 199 RFU and 204 RFU; RFU (Ae. aegypti NPYLR7; 11.1111111111111 uM): 247 RFU and 275 RFU; RFU (Ae. aegypti NPYLR7; 33.333333 uM): 320 RFU and 317 RFU; RFU (Ae. aegypti NPYLR7; 100 uM): 354 RFU and 310 RFU
COc1ccc(OCc2ccc3c(C)nc(NC(=N)N)nc3c2)cc1 [TDI-014175]	0.905	0.547 µM		98.4%	117%	0.548 µM	0.547 µM	0.547 µM	89.7%		EC50 (Ae. aegypti NPYLR7; [10]): 0.547 µM; activation at 0.4115 µM (Ae. aegypti NPYLR7; [8]): 35.1%; activation at 1.2346 µM (Ae. aegypti NPYLR7; [8]): 65.9%
CSCC[C@H](NC(=O)[C@H](Cc1ccccc1)NC(=O)CNC(=O)[C@H](CCC(N)=O)NC(=O)CNC(=O)[C@H](C)N)C(=O)N[C@@H](CCCNC(=N)N)C(=O)N[C@@H](Cc1ccccc1)C(N)=O [FMRF3a] (H-AGQGFMRF-NH2)											response at 0.0017(uM) (Ae. aegypti NPYLR7; 0.0017 uM, single replicate, normalised response): 2.545; response at 0.0051(uM) (Ae. aegypti NPYLR7; 0.0051 uM, single replicate, normalised response): -0.01361; EC50 (Ae. aegypti NPYLR7; EC50 (uM), EC50 of the individual assay date/plate (assay date)): 2.4 µM and 3.76 µM and 1.51 µM and 8.78 µM and 4.23 µM and 2.6 µM and 8.21 µM and 1.15 µM and 4.22 µM and 4.26 µM; EC50 (Ae. aegypti NPYLR7; Reported Metric, summary EC50 per compound (mean over assay dates), the unit is taken from the neighbouring EC50 (uM) column): 4.11 µM
Cc1nc(NC(=N)N)nc2cc(OC(F)(F)F)ccc12 [TDI-012613]						3.38 µM					EC50 (Ae. aegypti NPYLR7; [10]): 3.38 µM; EC50 (Ae. aegypti NPYLR7; Figure 1E, EC50 of the single assay date/plate, read-out: EC50): 5.42 µM and 1.34 µM; EC50 (Ae. aegypti NPYLR7; Figure 1E, metric reported per compound, repeated on every replicate line, read-out: Reported Metric (EC50)): 3.38 µM; activation at 11.1111 µM (Ae. aegypti NPYLR7; compound 11.1111 uM, single replicate well, read-out: response at 11.1111): 43.1%; activation at 33.3333 µM (Ae. aegypti NPYLR7; compound 33.3333 uM, single replicate well, read-out: response at 33.3333): 69.7%
